Measurements: patent publication US20050164903A1, “Complexed surfactant system” (priority 2001, published 2005)
Values joined by “and” are separate entries in the source; they are usually repeats but may differ in a detail not shown here. Identical values can stand only once. “Also recorded” adds a separate entry of the source.

Experiments:
[1] = Solubility noted for synthesized compounds; assay type: physicochemical; conditions: noted with the synthesis
[2] = Phase stability (appearance) of sample solutions; conditions: for Phase stability (appearance of sample solution): 1% aqueous solution
From the text: Concentration of a mixed system was controlled to 2% aqueous solution, and a mixing ratio of SLS and the cationic compound was controlled to 1:1 by mole ratio so that changes in physical properties could be remarkably shown (Table 1).

[3] = Surface tension and cmc, Kruss tensiometer K12; assay type: physicochemical
Method: Samples of which surface tensions were to be measured were prepared by mixing SLS and a cationic compound in a mole ratio of 1:1, wherein deionized water was used as water, and a container for measurement was immersed in a cleaning solution for more than 3 hours, washed with water and acetone, dried in an oven, and then used.
A ring method was used, and after measuring 5 times, a mean value was taken. Solutions of 1%, 0.1%, 0.01%, and 0.001% by weight ratio of each of the cationic compounds were prepared to use for the tests.

[4] = Foaming property (initial foamability and foam stability), semi-micro TK method; assay type: physicochemical; conditions: 1% solution
From the text: As samples for measuring initial foamability and foam stability, samples prepared under the same conditions as those used for measuring Krafft point were used (Table 14). […] The semi-micro TK method was used for measurement, and mean values were taken after measuring three times.
The tests were repeated three times and a mean value was taken.
Experiments were repeated three times, and a mean value was taken. For the experiment, a 1% aqueous solution was used.

[5] = Stability to hard water (10,000 ppm CaCl2 hard water added until cloudiness); assay type: physicochemical; conditions: for Precipitation in hard water: 0.5% (weight ratio), 100 ml sample
Method: After dissolving 11.69 g of CaCl2.2H2O in 1 liter of water to prepare hard water of 10,000 ppm, it was slowly added to a 0.5% aqueous solution sample, and stability to hard water was evaluated using the amount of hard water added until cloudiness began.
Hard water of 10,000 ppm prepared by dissolving 11.69 g of CaCl2.2H2O in 1 L of water was used for the tests. Stability to hard water was measured by adding hard water until pearl is appear, using 0.5% (weight ratio) of the cationic compound and 100 ml of the sample. This test was repeated by three times, and a mean value was taken.
Hard water at a 10,000 ppm concentration prepared by dissolving 11.69 g of CaCl2.2H2O in 1 L of water was used for the experiments. […] The tests were repeated by three times, and a mean value was measured.

[6] = Measurement of Krafft point (cloudiness on cooling, transparency on re-heating); assay type: physicochemical; conditions: 1% solution
Method: In the Krafft point test, the temperature when the solution clouded through the previous test becomes transparent again while elevating the temperature were measured.
The temperature when cloudiness begins was measured while cooling the transparent cationic compound solution (condition of lowering temperature). Additionally, the temperature when the solution becomes transparent was measured while elevating the temperature of the cloudy solution (condition of elevating temperature).
Also, while elevating the temperature of the clouded solution, temperatures when the solutions became transparent again were measured (condition when elevating temperature).

C[N+](C)(C)CCO [Synthesis Example 5, N-(trimethylamino)ethanol]
Solubility [1]: insoluble in acetone

C[N+](C)(CCO)CCCCCC[N+](C)(C)CCO.[I-].[I-] [Synthesis Example 14, 1,6-[2-(N,N-dimethylamino)ethanol]hexane]
Phase stability (appearance of sample solution) [2]: transparent | Surface tension ([3]; concentration 0.01%): 71.41 mN/m | Surface tension ([3]; concentration 0.1%): 70.04 mN/m | Surface tension ([3]; concentration 1%): 59.49 mN/m | Foaming property, result in words [4]: did not produced foam; also recorded: No foaming

N-(dimethyldodecylamino ethanol (EO)4 [Synthesis Example 7]
Solubility [1]: soluble in acetone

1.6-12-(N,N-methyloctylamino)ethanollhexane [Synthesis Example 17]
Phase stability (appearance of sample solution) [2]: cloudiness | Concentration at which the solution became transparent ([2]; cationic compound in water): 0.1 wt % | Surface tension ([3]; concentration 0.01%): 47.50 mN/m | Surface tension ([3]; concentration 0.1%): 33.90 mN/m | Surface tension ([3]; concentration 1%): 27.91 mN/m | Foaming property, result in words [4]: No foaming

CCCCCCCCCCCCOS(=O)(=O)[O-].[Na+] [SLS, sodium lauryl sulfate, reference compound]
Hard water concentration ([5]; stability to hard water): 310 ppm | Surface tension ([3]; concentration 0.01%): 57.18 mN/m | Surface tension ([3]; concentration 0.1%): 25.19 mN/m | Surface tension ([3]; concentration 1%): 35.92 mN/m | Foaming property, result in words [4]: maintains foam for 5 minutes almost constantly | Foaming property, initial foamability, 0 min. [4]: 233 mL | Krafft point, when elevating temperature: solution transparent again [6]: 14 °C | Krafft point, when lowering (dropping) temperature: cloudiness begins ([6]; sulfate): 2˜3 °C and 2 °C and 2-3 °C

N-(butyidimethylamino)ethanol [Synthesis Example 3]
Solubility [1]: insoluble in acetone

CC[N+](C)(C)CCO [Synthesis Example 4, N-(dimethylethylamino)ethanol]
Solubility [1]: soluble in acetone, insoluble in n-hexane

CCCCCCCC[N+](C)(C)CCO [Synthesis Example 2, N-(dimethyloctylamino)ethanol]
Solubility [1]: insoluble in acetone

CCCCCCCCCCCC[N+](C)(C)[O-] [Synthesis Example 19, N-Dimethyl Lauryl Amineoxide]
Phase stability (appearance of sample solution) [2]: transparent | Precipitation in hard water [5]: not precipitated | Surface tension ([3]; concentration 0.001%): 53.88 mN/m | Surface tension ([3]; concentration 0.01%): 31.67 mN/m | Surface tension ([3]; concentration 0.1%): 29.59 mN/m | Surface tension ([3]; concentration 1%): 31.94 mN/m | Foaming property, result in words [4]: foam immediately disappeared | Foaming property, initial foamability, 0 min. [4]: 210 mL | Foaming property, 1 min. ([4]; 1 min.): 55 mL

CCCC[N+](C)([O-])CCCCCC[N+](C)([O-])CCCC (stereo not drawn) [Synthesis Example 23, 16-(N,N-butylmethylamineoxyl)hexane]
Phase stability (appearance of sample solution) [2]: transparent | Precipitation in hard water [5]: not precipitated | Surface tension ([3]; concentration 0.01%): 64.05 mN/m | Surface tension ([3]; concentration 0.1%): 56.46 mN/m | Surface tension ([3]; concentration 1%): 46.51 mN/m | Foaming property, result in words [4]: did not produce foam
